# Experimental data from US12583858B2 (Genentech, Inc., priority 2015, dated 2026).
# Target: T1, TDO2 (Homo sapiens, UniProt P48775)
# T1 construct: decreased levels of NFK in SW48 cells (high TDO expressing cells)
# Test: TDO2 cell assay (NFK GreenScreen, SW48 cells)
# Type: cell-based
# Details: SW48 cells (high TDO expressing), 200 uM tryptophan, 24 hours; Table 3; read-out: TDO2 Cell Fluor EC50
# T1 sequence (P48775 whole entry): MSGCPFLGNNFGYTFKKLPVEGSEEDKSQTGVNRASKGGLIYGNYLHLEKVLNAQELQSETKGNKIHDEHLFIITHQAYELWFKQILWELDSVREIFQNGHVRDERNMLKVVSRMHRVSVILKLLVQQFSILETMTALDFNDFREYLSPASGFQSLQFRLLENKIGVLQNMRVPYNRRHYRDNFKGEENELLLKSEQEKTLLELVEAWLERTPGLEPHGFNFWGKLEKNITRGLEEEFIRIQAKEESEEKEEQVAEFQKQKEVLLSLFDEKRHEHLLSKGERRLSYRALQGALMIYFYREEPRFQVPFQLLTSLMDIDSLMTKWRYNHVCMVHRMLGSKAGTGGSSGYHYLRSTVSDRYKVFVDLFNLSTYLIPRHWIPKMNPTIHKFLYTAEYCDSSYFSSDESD
row,Structure (SMILES),EC50 [µM]
1,"OC1COCC1C1c2ccc(F)cc2-c2cncn21 (single isomer, unassigned) [Example 30d]",> 25
2,"OC1c2cccnc2CCC1C1c2ccccc2-c2cncn21 (single isomer, unassigned) [Example 31c]",17
3,"OC1c2cccnc2CCC1C1c2ccccc2-c2cncn21 (single isomer, unassigned) [Example 31d]",> 25
4,"OC1c2cccnc2CCC1C1c2ccccc2-c2cncn21 (single isomer, unassigned) [Example 31e]",1.1
5,"OC1c2cccnc2CCC1C1c2ccccc2-c2cncn21 (single isomer, unassigned) [Example 31f]",0.082
6,"N[C@@H]1COC[C@@H]1[C@H]1c2ccccc2-c2cncn21 (single isomer, unassigned) [Example 32c]",5.2
7,"OC1COCCC1C1c2ccc(F)cc2-c2cncn21 (single isomer, unassigned) [Example 33a]",> 25
8,"OC1COCCC1C1c2ccc(F)cc2-c2cncn21 (single isomer, unassigned) [Example 33c]",3.5
9,"OC1COCCC1C1c2ccc(F)cc2-c2cncn21 (single isomer, unassigned) [Example 33d]",> 25
10,"O[C@@H]1CCOC[C@H]1[C@H]1c2ccc(F)cc2-c2cncn21 (single isomer, unassigned) [Example 34a]",1.8
11,"O[C@@H]1CCOC[C@H]1[C@H]1c2ccc(F)cc2-c2cncn21 (single isomer, unassigned) [Example 34b]",> 25
12,"CC1(O)CCC1C1c2ccccc2-c2cncn21 (single isomer, unassigned) [Example 35a]",> 25
13,"CC1(O)CCC1C1c2ccccc2-c2cncn21 (single isomer, unassigned) [Example 35b]",0.45
14,"CC1(O)CCC1C1c2ccccc2-c2cncn21 (single isomer, unassigned) [Example 35c]",> 25
15,"CC1(O)CCC1C1c2ccccc2-c2cncn21 (single isomer, unassigned) [Example 35d]",0.35
16,"CS(=O)(=O)c1ccc2c(c1)CCC(C1c3ccccc3-c3cncn31)C2O (single isomer, unassigned) [Example 36a]",1.3
17,"CS(=O)(=O)c1ccc2c(c1)CCC(C1c3ccccc3-c3cncn31)C2O (single isomer, unassigned) [Example 36b]",0.058
18,"CS(=O)(=O)c1ccc2c(c1)CCC(C1c3ccccc3-c3cncn31)C2O (single isomer, unassigned) [Example 36c]",7.4
19,"CS(=O)(=O)c1ccc2c(c1)CCC(C1c3ccccc3-c3cncn31)C2O (single isomer, unassigned) [Example 36d]",3.8
20,"CS(=O)(=O)c1ccc2c(c1)CCC(C1c3ccccc3-c3cncn31)C2O (single isomer, unassigned) [Example 36e]",2.7

row,Structure (SMILES),EC50 [µM]
1,"CS(=O)(=O)c1ccc2c(c1)CCC(C1c3ccccc3-c3cncn31)C2O (single isomer, unassigned) [Example 36f]",0.14
2,"CS(=O)(=O)c1ccc2c(c1)CCC(C1c3ccccc3-c3cncn31)C2O (single isomer, unassigned) [Example 36g]",19
3,"CS(=O)(=O)c1ccc2c(c1)CCC(C1c3ccccc3-c3cncn31)C2O (single isomer, unassigned) [Example 36h]",0.98
4,"O=S1(=O)CC(O)C(C2c3ccccc3-c3cncn32)C1 (single isomer, unassigned) [Example 38a]",16
5,"O=S1(=O)CC(O)C(C2c3ccccc3-c3cncn32)C1 (single isomer, unassigned) [Example 38b]",0.15
6,"O=S1(=O)CC(O)C(C2c3ccccc3-c3cncn32)C1 (single isomer, unassigned) [Example 38c]",22
7,"O=S1(=O)CC(O)C(C2c3ccccc3-c3cncn32)C1 (single isomer, unassigned) [Example 38d]",3.8
8,"NS(=O)(=O)N1CC[C@@H]([C@H]2c3ccccc3-c3cncn32)[C@H](O)C1 (single isomer, unassigned) [Example 39b]",3.7
9,"NS(=O)(=O)N1CC[C@@H]([C@@H]2c3ccccc3-c3cncn32)[C@H](O)C1 (single isomer, unassigned) [Example 39c]",> 25
10,"NS(=O)(=O)N1CC[C@@H]([C@@H]2c3ccccc3-c3cncn32)[C@H](O)C1 (single isomer, unassigned) [Example 39d]",0.056
11,"CCS(=O)(=O)N1CC(O)C(C2c3ccccc3-c3cncn32)C1 (single isomer, unassigned) [Example 40a]",6.4
12,"CCS(=O)(=O)N1CC(O)C(C2c3ccccc3-c3cncn32)C1 (single isomer, unassigned) [Example 40b]",16
13,"CCS(=O)(=O)N1CC(O)C(C2c3ccccc3-c3cncn32)C1 (single isomer, unassigned) [Example 40c]",> 25
14,"CCS(=O)(=O)N1CC(O)C(C2c3ccccc3-c3cncn32)C1 (single isomer, unassigned) [Example 40d]",> 25
15,"CC(C)(C)OC(=O)N1CC2(CC(C3c4ccccc4-c4cncn43)C2O)C1 (single isomer, unassigned) [Example 41a, tert-butyl 7-hydroxy-6-(5H-imidazo[1,5-b]isoindol-5-yl)-2-azaspiro[3.3]heptane-2-carboxylate]",> 25
16,"CC(C)(C)OC(=O)N1CC2(CC(C3c4ccccc4-c4cncn43)C2O)C1 (single isomer, unassigned) [Example 41b, tert-butyl 7-hydroxy-6-(5H-imidazo[1,5-b]isoindol-5-yl)-2-azaspiro[3.3]heptane-2-carboxylate]",0.8
17,"CC(C)(C)OC(=O)N1CC2(CC(C3c4ccccc4-c4cncn43)C2O)C1 (single isomer, unassigned) [Example 41c, tert-butyl 7-hydroxy-6-(5H-imidazo[1,5-b]isoindol-5-yl)-2-azaspiro[3.3]heptane-2-carboxylate]",23
18,"CC(C)(C)OC(=O)N1CC2(CC(C3c4ccccc4-c4cncn43)C2O)C1 (single isomer, unassigned) [Example 41d, tert-butyl 7-hydroxy-6-(5H-imidazo[1,5-b]isoindol-5-yl)-2-azaspiro[3.3]heptane-2-carboxylate]",3.2
19,"CC(C)(C)OC(=O)N1CC2(CC(C3c4ccccc4-c4cncn43)C2O)C1 (single isomer, unassigned) [Example 41e, tert-butyl 7-hydroxy-6-(5H-imidazo[1,5-b]isoindol-5-yl)-2-azaspiro[3.3]heptane-2-carboxylate]",0.62
20,"CC(C)(C)OC(=O)N1CC2(CC(C3c4ccccc4-c4cncn43)C2O)C1 (single isomer, unassigned) [Example 41f, tert-butyl 7-hydroxy-6-(5H-imidazo[1,5-b]isoindol-5-yl)-2-azaspiro[3.3]heptane-2-carboxylate]",17

row,Structure (SMILES),EC50 [µM]
1,"CC(C)(C)OC(=O)N1CC2(CC(C3c4ccccc4-c4cncn43)C2O)C1 (single isomer, unassigned) [Example 41g, tert-butyl 7-hydroxy-6-(5H-imidazo[1,5-b]isoindol-5-yl)-2-azaspiro[3.3]heptane-2-carboxylate]",> 25
2,"CC(C)(C)OC(=O)N1CC2(CC(C3c4ccccc4-c4cncn43)C2O)C1 (single isomer, unassigned) [Example 41h, tert-butyl 7-hydroxy-6-(5H-imidazo[1,5-b]isoindol-5-yl)-2-azaspiro[3.3]heptane-2-carboxylate]",0.75
3,"OC1(C2c3ccccc3-c3cncn32)CCC1 (single isomer, unassigned) [Example 47a]",0.35
4,"OC1(C2c3ccccc3-c3cncn32)CCC1 (single isomer, unassigned) [Example 47b]",> 25
5,"OCC(O)C1c2ccccc2-c2cncn21 (single isomer, unassigned) [Example 49a, 1-(5H-imidazo[5,1-a]isoindol-5-yl)ethane-1,2-diol]",18
6,"OCC(O)C1c2ccccc2-c2cncn21 (single isomer, unassigned) [Example 49b, 1-(5H-imidazo[5,1-a]isoindol-5-yl)ethane-1,2-diol]",19.6
7,"OCC(O)C1c2ccccc2-c2cncn21 (single isomer, unassigned) [Example 49c, 1-(5H-imidazo[5,1-a]isoindol-5-yl)ethane-1,2-diol]",> 25
8,"OCC(O)C1c2ccccc2-c2cncn21 (single isomer, unassigned) [Example 49d, 1-(5H-imidazo[5,1-a]isoindol-5-yl)ethane-1,2-diol]",1.44
9,"CC(C)C(O)C1c2ccccc2-c2cncn21 (single isomer, unassigned) [Example 51a]",> 25
10,"CC(C)C(O)C1c2ccccc2-c2cncn21 (single isomer, unassigned) [Example 51b]",> 25
11,"CC(C)C(O)C1c2ccccc2-c2cncn21 (single isomer, unassigned) [Example 51c]",0.11
12,"CC(C)C(O)C1c2ccccc2-c2cncn21 (single isomer, unassigned) [Example 51d]",14
13,"OC(C1CC1)C1c2ccccc2-c2cncn21 (single isomer, unassigned) [Example 52a]",0.24
14,"OC(C1CC1)C1c2ccccc2-c2cncn21 (single isomer, unassigned) [Example 52b]",23.7
15,"OC(C1CC1)C1c2ccccc2-c2cncn21 (single isomer, unassigned) [Example 52c]",> 25
16,"OC(C1CC1)C1c2ccccc2-c2cncn21 (single isomer, unassigned) [Example 52d]",2
17,"OC1c2ccnn2CCC1C1c2ccccc2-c2cncn21 (single isomer, unassigned) [Example 56b]",0.37
18,"OC1c2ccnn2CCC1C1c2ccccc2-c2cncn21 (single isomer, unassigned) [Example 56f]",3.8
19,"OC1c2ccnn2CCC1C1c2ccccc2-c2cncn21 (single isomer, unassigned) [Example 56g]",> 25
20,"OC1C(C2c3ccccc3-c3cncn32)CC12CCOCC2 (single isomer, unassigned) [Example 57b]",5
